We go through one molecule from paper PMC6300358, “Preacinetobactin not acinetobactin is essential for iron uptake by the BauA transporter of the pathogen Acinetobacter baumannii” (eLife, 2018).

The target of the assay is T1, BauA (Acinetobacter baumannii, UniProt Q76HJ9).
T1 construct: mature protein (signal peptide removed); residues 33 to 703 well defined in the apo structure
Description: ITC (Kd […] at Fe3+:siderophore […]; […] at […]) and […] Å crystal structure. The class given is binding.

T1 sequence (Q76HJ9 entry or part of it): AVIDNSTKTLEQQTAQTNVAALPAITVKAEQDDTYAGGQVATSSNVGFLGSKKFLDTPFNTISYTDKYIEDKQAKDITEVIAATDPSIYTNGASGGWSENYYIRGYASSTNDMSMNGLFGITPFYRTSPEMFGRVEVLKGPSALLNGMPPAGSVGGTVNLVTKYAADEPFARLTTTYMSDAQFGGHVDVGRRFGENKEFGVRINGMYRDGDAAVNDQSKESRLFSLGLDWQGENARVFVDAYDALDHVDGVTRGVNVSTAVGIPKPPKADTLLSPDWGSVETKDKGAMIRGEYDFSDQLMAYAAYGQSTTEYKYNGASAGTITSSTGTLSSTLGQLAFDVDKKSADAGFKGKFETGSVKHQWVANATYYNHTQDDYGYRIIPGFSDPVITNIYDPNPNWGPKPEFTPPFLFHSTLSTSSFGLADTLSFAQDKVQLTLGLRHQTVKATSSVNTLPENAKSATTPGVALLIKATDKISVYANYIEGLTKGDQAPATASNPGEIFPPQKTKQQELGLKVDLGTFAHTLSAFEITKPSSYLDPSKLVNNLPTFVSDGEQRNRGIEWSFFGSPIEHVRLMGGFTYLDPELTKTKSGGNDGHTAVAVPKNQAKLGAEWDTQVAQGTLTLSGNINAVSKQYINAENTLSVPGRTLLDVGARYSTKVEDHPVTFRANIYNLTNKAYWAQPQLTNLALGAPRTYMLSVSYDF

Broadly, the Kd is the free concentration of one partner at which half of the binding sites on the other are occupied at equilibrium, for simple one-to-one binding. The low end stands for tighter binding, the high end for weaker binding. In the case of `C[C@H]1OC(c2cccc(O)c2O)=N[C@@H]1C(=O)N(O)CCc1cnc[nH]1` [preacinetobactin], the Kd was 83 nM.
